Experimental data from patent US12473301B2, “Isoquinoline compounds for the treatment of cancer” (Genentech, Inc., priority 2018, dated 2025).

What follows are compounds tested on primary human pan T cells (assay: Human T-Cell IL2 Induction Assay). Details: assayed concentration 0.926 μM; anti-CD3/anti-CD28 stimulation.
Type: cell-based
Method: Assay Principle: Anti-CD3 and anti-CD28 activates TCR signaling in primary human pan T cells leading to IL-2 promoter induction. Secreted IL-2 in cell culture supernatant is detected by electrochemiluminescence using a capture antibody against IL-2 and an anti-IL-2 antibody labeled with SULFO-tag. Also see www.mesoscale.com for additional electrochemiluminescence technology information.
Assay Procedure: Incubate primary human pan T cells with varying concentrations of test compounds for 30 minutes in a humidified incubator at 37° C. and 5% CO2. Transfer cells to a plate pre-coated with a fixed concentration of anti-human CD3 (determined separately for each donor lot) and add soluble anti-human CD28 (final concentration=1 μg/ml). Stimulate cells in a humidified incubator at 37° C. and 5% CO2 for 4 hours. Transfer 25 μl of supernatant to a MSD single spot plate pre-coated with an anti-human IL-2 antibody. Incubate MSD plate overnight at 4° C. with gentle shaking. Wash MSD plate 4× with wash buffer. Add SULFO-tagged detection antibody at a 1:50 dilution and incubate at room temperature shaking for 2 hours. Wash MSD plate 4× with wash buffer and add 150 μl 2×MSD read buffer. Read on an MSD instrument. Normalize data to stimulated/untreated controls to calculate % activity at each concentration of compound.
• Frozen Primary Human Pan-T Cells (StemCell Technologies #70024) • anti-human CD3 (OKT3 clone) (eBioscience #16-0037-81) • anti-human CD28 (CD28.2 clone) (BD #555725) • 96-well Human IL-2 tissue culture kit (MSD #K151AHB-4) Instrumentation: • Biomek FX for liquid handling (Beckman Coulter) • MSD SECTOR S 600 (Meso Scale Discovery)
Exemplary compounds of Formula (I) were tested in the human T-cell IL-2 induction assays. The % increase measured for IL-2 in cells treated by the test compounds relative to untreated cells are provided in Table B2 for certain compounds.

SMILES | % IL-2 increase relative to untreated cells [%]
CC[C@@H]1[C@H](C(=O)Nc2cc3cc(-c4cnc5c(c4C)NCCO5)c(F)cc3cn2)[C@H]1c1cnn(C)c1 (single isomer, unassigned) [Compound 301c] | 232

Same assay, conditions: assayed concentration 2.778 μM; anti-CD3/anti-CD28 stimulation

SMILES | % IL-2 increase relative to untreated cells [%]
Cc1c(-c2cc3cc(NC(=O)OC4CC5(CCNCC5)C4)ncc3cc2F)cnc2c1NCCO2 [Compound 113, 7-Azaspiro[3.5]nonan-2-yl (7-fluoro-6-(8-methyl-2,3-dihydro-1H-pyrido[2,3-b][1,4]oxazin-7-yl)isoquinolin-3-yl)carbamate] | 702
Cc1c(-c2cc3cc(NC(=O)N[C@H](C)c4cnn(C)c4)ncc3cc2F)cnc2c1NCCO2 [Compound 201a, (R)-1-(7-Fluoro-6-(8-methyl-2,3-dihydro-1H-pyrido[2,3-b][1,4]oxazin-7-yl)isoquinolin-3-yl)-3-(1-(1-methyl-1H-pyrazol-4-yl)ethyl)urea] | 145

What follows are compounds tested against HPK1 (Homo sapiens (Human), UniProt Q92918, S171E/T165E) (assay: HPK1-FL HTRF Enzymatic Assay ("HTRF")). Details: HPK full length, ATP 1 mM.
Sequence of HPK1 (Q92918 whole entry T165E/S171E): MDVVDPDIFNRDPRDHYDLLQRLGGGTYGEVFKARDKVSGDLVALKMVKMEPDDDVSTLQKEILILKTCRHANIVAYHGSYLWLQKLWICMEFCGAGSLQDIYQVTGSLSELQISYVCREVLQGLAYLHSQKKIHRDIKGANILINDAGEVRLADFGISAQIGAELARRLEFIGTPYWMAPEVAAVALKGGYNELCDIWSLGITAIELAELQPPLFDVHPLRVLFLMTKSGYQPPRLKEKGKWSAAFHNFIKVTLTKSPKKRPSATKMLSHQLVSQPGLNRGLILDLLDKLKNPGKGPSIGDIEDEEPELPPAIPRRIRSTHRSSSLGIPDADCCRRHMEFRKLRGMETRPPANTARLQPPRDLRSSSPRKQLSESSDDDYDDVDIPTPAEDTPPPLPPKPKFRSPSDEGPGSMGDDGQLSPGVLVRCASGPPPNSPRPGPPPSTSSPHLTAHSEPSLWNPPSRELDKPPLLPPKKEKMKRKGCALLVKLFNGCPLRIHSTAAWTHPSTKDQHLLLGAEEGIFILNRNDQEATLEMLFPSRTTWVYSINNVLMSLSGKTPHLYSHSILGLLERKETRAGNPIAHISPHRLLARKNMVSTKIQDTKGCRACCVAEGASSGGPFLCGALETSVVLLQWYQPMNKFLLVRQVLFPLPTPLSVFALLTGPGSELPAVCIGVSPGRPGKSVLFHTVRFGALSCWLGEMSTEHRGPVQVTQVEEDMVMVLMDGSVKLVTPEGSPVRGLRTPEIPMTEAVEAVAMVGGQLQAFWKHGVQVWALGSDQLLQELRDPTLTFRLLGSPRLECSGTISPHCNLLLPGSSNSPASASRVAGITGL
Type: biochemical
Method: HPK1-FL HTRF Enzymatic Assay (“HTRF”)
HPK-FL enzyme phosphorylates Biotin-SLP-76 substrate in the presence of ATP at 1 mM and varying concentrations of test compound. Product is detected by FRET using Eu-anti-pSLP76 Ab and SA-XL665. Also see www.cisbio.com/HTRF for additional HTRF technology information.
Instrumentation: Echo555 compound dispenser; Agilent Bravo; Perkin Elmer Envision.
To a 384 well Proxiplate with 80 nL compound or DMSO spotted on was added 4 μl/well kinase mix. The mixture was preincubated for 30 minutes and then 4 μl/well substrate mix was added. The solution was incubated for 60 min and then 4 μl/well detection mix was added. The solution was incubated for another 60 min. The plates were then loaded onto a
Perkin Elmer Envision and the TR-FRET signal was measured at […] and 665 nm. A ratio of 665/620 was used to calculate the % activity at each concentration of compound.

SMILES | Ki [nM]
CC[C@@H]1[C@H](C(=O)Nc2cc3cc(-c4cnc5c(c4C)NCCO5)c(F)cc3cn2)[C@H]1c1cnn(C)c1 (single isomer, unassigned) [Compound 301c] | 0.06
Cc1c(-c2cc3cc(NC(=O)OC4CC5(CCNCC5)C4)ncc3cc2F)cnc2c1NCCO2 [Compound 113, 7-Azaspiro[3.5]nonan-2-yl (7-fluoro-6-(8-methyl-2,3-dihydro-1H-pyrido[2,3-b][1,4]oxazin-7-yl)isoquinolin-3-yl)carbamate] | 0.27
Cc1c(-c2cc3cc(NC(=O)OCC4(F)CCNCC4)ncc3cc2F)cnc2c1NCCO2 [Compound 111, (4-Fluoropiperidin-4-yl)methyl (7-fluoro-6-(8-methyl-2,3-dihydro-1H-pyrido[2,3-b][1,4]oxazin-7-yl)isoquinolin-3-yl)carbamate] | 4
Cc1c(-c2cc3cc(NC(=O)O[C@H]4CCCC[C@@H]4C#N)ncc3c(Cl)c2F)cnc2c1NCCO2 (single isomer, unassigned) [Compound 126a] | 492
Cc1c(-c2cc3cc(NC(=O)NC(C)c4cnn(C)c4)ncc3cc2F)cnc2c1NCCO2 (single isomer, unassigned) [Compound 201a] | 0.95
Cc1c(-c2cc3cc(NC(=O)OCCN)ncc3cc2F)cnc2c1NCCO2 [Compound 112, 2-Aminoethyl (7-fluoro-6-(8-methyl-2,3-dihydro-1H-pyrido[2,3-b][1,4]oxazin-7-yl)isoquinolin-3-yl)carbamate] | 32
Cc1c(-c2cc3cc(NC(=O)NC4CNC4)ncc3cc2F)cnc2c1NCCO2 [Compound 205, 1-(Azetidin-3-yl)-3-(7-fluoro-6-(8-methyl-2,3-dihydro-1H-pyrido[2,3-b][1,4]oxazin-7-yl)isoquinolin-3-yl)urea] | 0.76
CNC(=O)N1CC(OC(=O)Nc2cc3cc(-c4cnc5c(c4C)NCCO5)c(F)cc3cn2)C1 [Compound 105, 1-(Methylcarbamoyl)azetidin-3-yl (7-fluoro-6-(8-methyl-2,3-dihydro-1H-pyrido[2,3-b][1,4]oxazin-7-yl)isoquinolin-3-yl)carbamate] | 0.91
Cc1c(-c2cc3cc(NC(=O)O[C@H]4[C@@H]5CNC[C@@H]54)ncc3cc2F)cnc2c1NCCO2 [Compound 129a, (1R,5S,6s)-3-Azabicyclo[3.1.0]hexan-6-yl (7-fluoro-6-(8-methyl-2,3-dihydro-1H-pyrido[2,3-b][1,4]oxazin-7-yl)isoquinolin-3-yl)carbamate] | 0.58
Cc1c(-c2cc3cc(NC(=O)OC4CC5(CCN(C)CC5)C4)ncc3cc2F)cnc2c1NCCC2 [Compound 133, 7-Methyl-7-azaspiro[3.5]nonan-2-yl (7-fluoro-6-(4-methyl-5,6,7,8-tetrahydro-1,5-naphthyridin-3-yl)isoquinolin-3-yl)carbamate] | 1.07
Cc1c(-c2cc3cc(NC(=O)OC4CC5(CCNC5)C4)ncc3cc2F)cnc2c1NCCO2 (centres unmarked) [Compound 134, 6-Azaspiro[3.4]octan-2-yl (7-fluoro-6-(8-methyl-2,3-dihydro-1H-pyrido[2,3-b][1,4]oxazin-7-yl)isoquinolin-3-yl)carbamate] | 0.47
Cc1c(-c2cc3cc(NC(=O)OCC4CCCCO4)ncc3cc2F)cnc2c1NCCO2 (racemic) [Compound 116, (Tetrahydro-2H-pyran-2-yl)methyl (7-fluoro-6-(8-methyl-2,3-dihydro-1H-pyrido[2,3-b][1,4]oxazin-7-yl)isoquinolin-3-yl)carbamate] | 7.5
Cc1c(-c2cc3cc(NC(=O)OCCc4ccccn4)ncc3cc2F)cnc2c1NCCO2 [Compound 119, 2-(Pyridin-2-yl)ethyl (7-fluoro-6-(8-methyl-2,3-dihydro-1H-pyrido[2,3-b][1,4]oxazin-7-yl)isoquinolin-3-yl)carbamate] | 9.5
Cc1c(-c2cc3cc(NC(=O)NC4CCOCC4)ncc3cc2F)cnc2c1NCCO2 [Compound 204, 1-(7-Fluoro-6-(8-methyl-2,3-dihydro-1H-pyrido[2,3-b][1,4]oxazin-7-yl)isoquinolin-3-yl)-3-(tetrahydro-2H-pyran-4-yl)urea] | 0.83
Cc1c(-c2cc3cc(NC(=O)OCC(C)N)ncc3cc2F)cnc2c1NCCO2 (racemic) [Compound 110, 2-Aminopropyl (7-fluoro-6-(8-methyl-2,3-dihydro-1H-pyrido[2,3-b][1,4]oxazin-7-yl)isoquinolin-3-yl)carbamate] | 29
Cc1c(-c2cc3cc(NC(=O)NC4CC4)ncc3cc2F)cnc2c1NCCO2 [Compound 207, 1-Cyclopropyl-3-(7-fluoro-6-(8-methyl-2,3-dihydro-1H-pyrido[2,3-b][1,4]oxazin-7-yl)isoquinolin-3-yl)urea] | 0.2
CC[C@@H]1[C@@H](C(=O)Nc2cc3cc(-c4cnc5c(c4C)NCCO5)c(F)cc3cn2)[C@@H]1c1cnn(C)c1 (single isomer, unassigned) [Compound 301a] | 0.9
CC[C@H]1[C@H](C(=O)Nc2cc3cc(-c4c[n+]([O-])ccc4C)c(F)cc3cn2)[C@H]1c1cnn(C)c1 [Compound 302b, 3-(3-((1S,2R,3S)-2-Ethyl-3-(1-methyl-1H-pyrazol-4-yl)cyclopropane-1-carboxamido)-7-fluoroisoquinolin-6-yl)-4-methylpyridine 1-oxide] | 2000
CC[C@@H]1[C@H](C(=O)Nc2cc3cc(-c4c[n+]([O-])ccc4C)c(F)cc3cn2)[C@H]1c1cnn(C)c1 [Compound 302a, 3-(3-((1S,2S,3S)-2-Ethyl-3-(1-methyl-1H-pyrazol-4-yl)cyclopropane-1-carboxamido)-7-fluoroisoquinolin-6-yl)-4-methylpyridine 1-oxide] | 1280
Cc1c(-c2cc3cc(NC(=O)OC4COC5(CCNC5)C4)ncc3cc2F)cnc2c1NCCO2 (racemic) [Compound 108, 1-Oxa-7-azaspiro[4.4]nonan-3-yl (7-fluoro-6-(8-methyl-2,3-dihydro-1H-pyrido[2,3-b][1,4]oxazin-7-yl)isoquinolin-3-yl)carbamate] | 4
Cc1c(-c2cc3cc(NC(=O)NC4CCOC4)ncc3cc2F)cnc2c1NCCO2 (single isomer, unassigned) [Compound 206a] | 0.88
Cc1c(-c2cc3cc(NC(=O)O[C@@H]4CCCC[C@H]4C#N)ncc3c(Cl)c2F)cnc2c1NCCO2 (single isomer, unassigned) [Compound 126b] | 0.945
Cc1c(-c2cc3cc(NC(=O)OCC4CC4)ncc3cc2F)cnc2c1NCCO2 [Compound 101, Cyclopropylmethyl (7-fluoro-6-(8-methyl-2,3-dihydro-1H-pyrido[2,3-b][1,4]oxazin-7-yl)isoquinolin-3-yl)carbamate] | 2.7
